Data: patent US20060013852A1, “Use of organic compounds” (priority 2002, published 2006)

Key:
[1] = system: Ang II induced angiogenic response; assay: angiogenic response to locally delivered Ang II; assay type: in vivo; conditions: Ang II delivered locally in mice or rats
Text: (§1) 4. […] CYR61, an angiogenic factor, is induced by Angiotensin II (Ang II) in vascular cells and tissue. Likewise, Ang II induces an angiogenic reponse when Angil is delivered locally in mice or rats.

[2] = system: neointimal lesion formation; assay: rat carotid artery balloon injury model; assay type: in vivo; conditions: local delivery to adventitia via Alzet minipump; early (9 days) and late (21-28 days) post-ballooning
Text: Rat carotid arteries are balloon injured using a method described by Clowes et al. Lab. Invest. 1983; 49; 208-215. […] A P<0.05 is considered statistically significant.

[3] = system: restenotic lesion formation; assay: rabbit iliac stent model; assay type: in vivo, New Zealand White rabbit; conditions: for angiogenic response post-stenting: orally and locally via coated stent, 7 and 28 days post-stenting, vs placebo
Method: A combined angioplasty and stenting procedure is performed in New Zealand White rabbit iliac arteries. Iliac artery balloon injury is performed by inflating a 3.0×9.0 mm angioplasty balloon in the mid-portion of the artery followed by “pull-back” of the catheter for 1 balloon length. Balloon injury is repeated 2 times, and a 3.0×12 mm stent is deployed at 6 atm for 30 seconds in the iliac artery. Balloon injury and stent placement is then performed on the contralateral iliac artery in the same manner. A post-stent deployment angiogram is performed. […] The vascular section between the distal aorta and the proximal femoral arteries is excised and cleaned of periadventitial tissue. The stented section of artery is embedded in plastic and sections are taken from the proximal, middle, and distal portions of each stent. […] The vessel area is measured as the area within the EEL. Data are expressed as mean±SEM. […] A P<0.05 is considered statistically significant.
as §1

[4] = clinical study of aliskiren in dialysis patients after catheter insertion; assay type: in vivo, human; conditions: aliskiren 100 mg daily for 3 months; observation 6 months
Method: One hundred fifty prospective dialysis patients, who undergo successful insertion of an indwelling, large bore catheter, into a vein are selected for study. […] These drugs are administered for 3 consecutive months following catheter insertion.

COCCCOc1cc(C[C@@H](C[C@H](N)[C@@H](O)C[C@H](C(=O)NCC(C)(C)C(N)=O)C(C)C)C(C)C)ccc1OC [aliskiren, 2(S),4(S),5(S),7(S)-N-(3-amino-2,2-dimethyl-3-oxopropyl)-2,7-di(1-methylethyl)-4-hydroxy-5-amino-8-[4-methoxy-3-(3-methoxy-propoxy)phenyl]-octanamide]
inhibition of Ang II induced angiogenic response in vivo [1]: potent inhibition | inhibition of neointimal lesions [2]: potent inhibition | angiogenic response post-stenting [3]: markedly inhibits | prevention or reduction of vascular access dysfunction [4]: efficacy

CCCCC(=O)N(Cc1ccc(-c2ccccc2-c2nnn[nH]2)cc1)[C@H](C(=O)O)C(C)C [valsartan]
inhibition of Ang II induced angiogenic response in vivo [1]: potent inhibition | inhibition of neointimal lesions [2]: potent inhibition | angiogenic response post-stenting [3]: markedly inhibits | mean neointimal thickness ([3]; vs placebo-treated animals): reduced | percent stent stenosis ([3]; vs placebo-treated animals): reduced
